Where two headings read alike, the source gives them in different places.
Key:
[1] = system: human myelogenous leukemic cells (HL-60); assay: Inhibition of proliferation of human myelogenous leukemic cells (HL-60), Trypan Blue staining; assay type: cell-based; conditions: for Surviving Cell Number: stationary culture at 37°C for 4 days, start 1 x 10^5 cells/ml, control 44.0 x 10^4; for inhibition at 5 µg/mL: Homo sapiens
Description: The test on the inhibition of the proliferation of human myelogenous leukemic cells was conducted by a well known method. The human myelogenous leukemic cells (HL-60) were added to an RPMI culture solution containing 10% bovine fetal serum, the number of cells in the culture solution was adjusted to 1 x 10^5 cells/ml, a solution in ethanol of the compound under test was added to give a concentration of 5µg/ml, and the mixture was subjected to stationary culture at 37°C for 4 days. As a control, a culture solution containing 0.1% of ethanol was similarly cultured. The culture solutions were stained by the Trypan Blue staining method and the surviving cell number was measured to determine the degree of inhibition relative to the control.

[2] = Blood pressure depression after intravenous administration to the allobarbital-anesthetized dog; assay type: in vivo
[3] = Acute toxicity by intraperitoneal administration; conditions: mouse, in vivo, ip; intraperitoneal administration in mice
Description: The acute toxicity of the compounds of the present invention was >50 mg/kg by intraperitoneal administration, so that the prostaglandin D derivatives of the present invention may be considered to be sufficiently safe and suitable for medical use.

[4] = 96 h, HL-60, 5 µg/ml, 37°C for 4 days, relative to control (0.1% ethanol), b55 gives the same values in %, read-out: Degree of Inhibition
[5] = HL-60, concentration of 5 µg/ml, read-out: inhibited the proliferation of the leukemic cells
[6] = dosage of 10 µg/kg animal body weight

Row | SMILES | Surviving Cell Number ([1]; HL-60, 5 µg/ml) | inhibition at 5 µg/mL [1, 4] | inhibition at 5 µg/mL [1, 5] | blood pressure depression [2, 6] | duration of blood pressure depression effect [2, 6] | blood pressure depression ([2]; dosage of 100 µg/kg animal body weight) | LD50 [3]
1 | CCCCC[C@H](O)/C=C/[C@H]1C(=O)C[C@H](O)[C@@H]1C/C=C\CCCC(=O)O [PGD2, prostaglandin D2] | 19.5 x 10^4 cells/ml | 55.6% | 55.6% | 26 mm Hg | 6 min | – | –
2 | CCCCCC=CC=C1C(=O)C=CC1CC=CCCCC(=O)O (stereo not shown) [(5Z,9Z,14EZ)-11-oxoprosta-5,9,12,14-tetraenoic acid] | 3 x 10^4 cells/ml | 93.2% | 93.2% | – | – | did not cause blood pressure depression | 78 mg/kg
